What all share (type): in vivo
The test system of assay [1] is FATZO mouse model. In words: Liver Oil Red O staining area in FATZO mice on WDF, Example 5. As to conditions: oral, 4 weeks, LIVRQNAC + G 3885 mg/kg, LRQNAC 2469 mg/kg, OCA 30 mg/kg/day. An excerpt: (§1) NASH was induced in 60 male FATZO mice by a western diet (Research Diet #D12079B; fat 40% kcal, protein 17% kcal, carbohydrate 43% kcal) supplemented with 500 fructose in the drinking water (WDF) during a 16 week induction phase. Diets and water were available ad libitum. Littermate control male FATZO mice fed with a control diet (n=6, Purina #5008; fat 17% kcal, protein 27% kcal, carbohydrate 56% kcal) and sterile water were set up for control purpose. Mice were housed in plastic cages with microisolator. Sterilized bedding was replaced once a week. Mice were housed three per cage and maintained on a twelve hour light cycle throughout study duration. Room temperature was monitored daily and maintained at 22-25° C. Body weight was recorded every week during the induction phase. […]
(§2) […], […]+G, LRQNAC, OCA and Vehicle were administered by oral gavage at a volume of 10 mL/kg throughout the study. Dosages were calculated by daily body weight. […]
Aperio Automatic Image Quantitation was employed to quantify positive pixels of immunohistochemical staining, Oil-Red 0, and Sirius Red staining. The Positive Pixel Count algorithm was used to quantify the percentage of a specific stain present in a scanned slide image. A range of color (range of hues and saturation) and three intensity ranges (weak, positive, and strong) were masked and evaluated. […]

In assay [2] the test system is FATZO mouse model. In words: Blood glucose in FATZO mice on WDF, Example 5. As to conditions: oral gavage 4 weeks, LIVRQNAC 3000 mg/kg, LIVRQNAC+G 3,885 mg/kg, LRQNAC 2,469 mg/kg BID, OCA QD.
From the text: (§3) NASH was induced in 60 male FATZO mice by a western diet (Research Diet #D12079B; fat 40% kcal, protein 17% kcal, carbohydrate 43% kcal) supplemented with 500 fructose in the drinking water (WDF) during a 16 week induction phase. Diets and water were available ad libitum. Littermate control male FATZO mice fed with a control diet (n=6, Purina #5008; fat 17% kcal, protein 27% kcal, carbohydrate 56% kcal) and sterile water were set up for control purpose. Mice were housed in plastic cages with microisolator. Sterilized bedding was replaced once a week. Mice were housed three per cage and maintained on a twelve hour light cycle throughout study duration. Room temperature was monitored daily and maintained at 22-25° C. Body weight was recorded every week during the induction phase.
Following 16 weeks diet induction, 6 mice remained on control diet (group 1, Control) while 60 induced mice were randomized on body weight and plasma glucose (fed) for assignment to the following treatments. FATZO mice were administered with test articles starting at 16 weeks post western diet NASH induction for 4 weeks. […]
as §2
(§4) The viability, clinical signs and behavior were monitored daily. Body weight was recorded daily during the dosing period. […]

For assay [3], the system named is FATZO mouse model. In words: Liver histology: NAFLD activity score, steatosis, inflammation, ballooning in FATZO mice on WDF, Example 5. As to conditions: 4 weeks.
From the text: as §3
Following 16 weeks diet induction, 6 mice remained on control diet (group 1, Control) while 60 induced mice were randomized on body weight and plasma glucose (fed) for assignment to the following treatments. FATZO mice were administered with test articles starting at 16 weeks post western diet NASH induction for 4 weeks. Test articles were administered by oral gavage. Animals were euthanized at 20 weeks post western diet NASH induction, and tissues were harvested for analysis.
[…], […]+G, LRQNAC, OCA and Vehicle were administered by oral gavage at a volume of 10 mL/kg throughout the study. Dosages were calculated by daily body weight. […], […]+G, LRQNAC, and Vehicle were administered twice per day (BID), while OCA was administered once a day (QD) in the morning. Mice receiving OCA once per day (QD), and one vehicle QD. Doses were administered by oral gavage at 0700 and 1800 by oral gavage for 4 weeks.
The liver tissues were fixed in Bouin's solution at 4° C. for 24 hours followed by baths of standard concentrations of alcohol then xylene to prepare the tissues for paraffin embedding.
After being embedded in paraffin and cooled, five-micron sections were cut and stained for routine H&E and Picric Sirius Red. A section of both right and left lobes of the livers were frozen in OCT for analysis of lipid content with Oil-Red-) staining. The Aperio whole slide digital imaging system (Scan Scope C S, Vista, CA) was used for imaging. All slides were imaged at 20×. The scan time ranged from 1.5 minutes to a maximum time of 2.25 minutes. The whole images were housed and stored in their Spectrum software system and images were shot from the whole slides.
The livers were evaluated using the NASH liver criteria for scoring. In this mouse study, one cross section of liver for each case was analyzed with the NASH score system. According to the published NASH CRN Scoring System, this scoring system comprises of NAFLD Activity Score (NAS), fibrosis stage and identification of NASH by pattern recognition. The NAS can range from 0 to 8 and is calculated by the sum of scores of steatosis (0-3), lobular inflammation (0-3) and hepatocyte ballooning (0-2) from H&E stained sections. Fibrosis was scored (0-4) from picrosirius red stained slides. […] Steatosis, lobular inflammation, hepatocyte. balloon degeneration, fibrosis, NAS and the presence of NASH by pattern recognition were systematically assessed. In this study we evaluated one total cross section of liver per mouse in this study. […] The pathology score was determined as 0, +1, +2, or +3. The lesions were scored on location (periportal, centrilobular, and mid zonal) and fat accumulation (focal, periportal, and/or centrilobular). […]

Assay [4] relates to FATZO mouse model. In words: Body weight, liver weight and clinical observations in FATZO mice on WDF, Example 5. The note with it: oral gavage 4 weeks, LIVRQNAC 3000 mg/kg, LIVRQNAC+G 3,885 mg/kg, LRQNAC 2,469 mg/kg BID, OCA QD.
From the text: as §1, §2, §4
Animals were anesthetized with CO2 inhalation and exsanguinated via cardiac puncture for euthanasia. […] Organ weights (total liver, gonadal fat pads) were recorded. […]

The test system of assay [5] is FATZO mouse model. In words: Liver fibrosis score and Sirius Red collagen staining in FATZO mice on WDF, Example 5. The note with it: oral, 4 weeks, LIVRQNAC + G 3885 mg/kg, LRQNAC 2469 mg/kg, OCA 30 mg/kg/day.
From the text: as §1, §2
The livers were evaluated using the NASH liver criteria for scoring. In this mouse study, one cross section of liver for each case was analyzed with the NASH score system. […] The NAS can range from 0 to 8 and is calculated by the sum of scores of steatosis (0-3), lobular inflammation (0-3) and hepatocyte ballooning (0-2) from H&E stained sections. Fibrosis was scored (0-4) from picrosirius red stained slides. […]

Setting [6] is: score 0-3, oral, LIVRQNAC + G 3885 mg/kg, LRQNAC 2469 mg/kg, OCA 30 mg/kg/day.

Each structure is given as a SMILES string.

With `CC[C@H]1[C@@H](O)[C@@H]2[C@H](CC[C@]3(C)[C@@H]([C@H](C)CCC(=O)O)CC[C@@H]23)[C@@]2(C)CC[C@@H](O)C[C@@H]12` [OCA, 6α-ethyl-chenodeoxycholic acid], the “Oil Red O (staining area)” value in assay [1] worked out at 0.24 ± 0.021. Besides, the “Average blood glucose over the dosing period” value in assay [2] is 169.7 ± 6.3 mg/dL. In assay [3], the “NAFLD activity score (NAS) compared to vehicle” value is reported as “no significant effect”. For the same compound, in assay [3] (oral, LIVRQNAC + G 3885 mg/kg, LRQNAC 2469 mg/kg, OCA 30 mg/kg/day), the “Liver Pathology NAS” value was 3.72 ± 0.147. Moreover, the “Liver Pathology Ballooning” value in assay [3] (score 0-2, oral, LIVRQNAC + G 3885 mg/kg, LRQNAC 2469 mg/kg, OCA 30 mg/kg/day) turned out to be 0.94 ± 0.056. Further, in assay [3] (setting [6]), the “Liver Pathology Inflammation” value is given as 1.0 ± 0.0 and the “Liver Pathology Steatosis” value came to 1.78 ± 0.147. Besides, the “Liver weight (% body weight)” value in assay [4] was 6.81±0.2 % body weight. Besides, in assay [5], the “Fibrosis (score)” value is on record as 0.67 ± 0.167 and the “Sirius Red (collagen staining)” value amounted to 1.59 ± 0.36.

Source of the values: patent publication US20240238232A1, “COMPOSITIONS AND METHODS FOR THE REDUCTION OR TREATMENT OF INSULIN RESISTANCE AND METABOLIC CONDITIONS” (AXCELLA HEALTH INC., priority 2018, published 2024).
